ChEMBL document CHEMBL1157753, “Stereochemical requirements for the mineralocorticoid receptor antagonist activity of dihydropyridines” (J Med Chem, 2010)

What was measured:
[1] = molecular target: T1, Mineralocorticoid receptor (Homo sapiens, UniProt P08235)
T1 sequence (P08235 whole entry): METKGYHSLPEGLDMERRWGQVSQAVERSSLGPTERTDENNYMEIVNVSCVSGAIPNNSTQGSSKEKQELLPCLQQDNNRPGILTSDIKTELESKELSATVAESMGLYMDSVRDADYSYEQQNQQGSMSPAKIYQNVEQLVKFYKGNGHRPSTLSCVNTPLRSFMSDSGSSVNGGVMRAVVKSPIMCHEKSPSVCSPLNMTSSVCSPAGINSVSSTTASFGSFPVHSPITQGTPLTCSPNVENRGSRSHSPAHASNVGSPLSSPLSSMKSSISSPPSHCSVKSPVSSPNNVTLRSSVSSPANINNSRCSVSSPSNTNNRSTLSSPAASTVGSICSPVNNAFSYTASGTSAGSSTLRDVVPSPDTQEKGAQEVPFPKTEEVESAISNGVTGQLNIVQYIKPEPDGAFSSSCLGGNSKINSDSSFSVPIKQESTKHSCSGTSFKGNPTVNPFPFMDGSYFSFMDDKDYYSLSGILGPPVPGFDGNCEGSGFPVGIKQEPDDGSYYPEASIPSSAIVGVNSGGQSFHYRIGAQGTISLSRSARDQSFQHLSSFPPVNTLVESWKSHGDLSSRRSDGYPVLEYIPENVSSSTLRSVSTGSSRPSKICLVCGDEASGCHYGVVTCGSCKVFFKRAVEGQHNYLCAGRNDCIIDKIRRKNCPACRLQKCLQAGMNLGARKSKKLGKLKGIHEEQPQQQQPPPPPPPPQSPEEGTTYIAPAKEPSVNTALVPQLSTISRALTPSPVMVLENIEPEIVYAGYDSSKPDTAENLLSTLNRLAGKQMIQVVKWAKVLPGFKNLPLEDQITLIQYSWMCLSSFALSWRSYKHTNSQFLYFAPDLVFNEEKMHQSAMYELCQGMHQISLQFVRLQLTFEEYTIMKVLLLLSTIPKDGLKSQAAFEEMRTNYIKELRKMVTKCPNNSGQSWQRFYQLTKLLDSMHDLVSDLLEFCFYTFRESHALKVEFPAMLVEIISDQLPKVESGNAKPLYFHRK
Description: Antagonist activity at Gal4-fused mineralocorticoid receptor expressed in human HuH7 cells assessed as inhibition of aldosterone-induced receptor activation by luciferase reporter gene assay

[2] = molecular target: Voltage-gated L-type calcium channel (Rattus norvegicus, UniProt P22002+Q02485+P27732); assay: Inhibition of L-type calcium channel in rat A10 cells assessed as inhibition of depolarization-induced increase in calcium flux after 10 mins by FLIPR assay
[3] = molecular target: T2, Glucocorticoid receptor (Homo sapiens, UniProt P04150); assay: Inhibition of glucocorticoid receptor
T2 sequence (P04150 whole entry): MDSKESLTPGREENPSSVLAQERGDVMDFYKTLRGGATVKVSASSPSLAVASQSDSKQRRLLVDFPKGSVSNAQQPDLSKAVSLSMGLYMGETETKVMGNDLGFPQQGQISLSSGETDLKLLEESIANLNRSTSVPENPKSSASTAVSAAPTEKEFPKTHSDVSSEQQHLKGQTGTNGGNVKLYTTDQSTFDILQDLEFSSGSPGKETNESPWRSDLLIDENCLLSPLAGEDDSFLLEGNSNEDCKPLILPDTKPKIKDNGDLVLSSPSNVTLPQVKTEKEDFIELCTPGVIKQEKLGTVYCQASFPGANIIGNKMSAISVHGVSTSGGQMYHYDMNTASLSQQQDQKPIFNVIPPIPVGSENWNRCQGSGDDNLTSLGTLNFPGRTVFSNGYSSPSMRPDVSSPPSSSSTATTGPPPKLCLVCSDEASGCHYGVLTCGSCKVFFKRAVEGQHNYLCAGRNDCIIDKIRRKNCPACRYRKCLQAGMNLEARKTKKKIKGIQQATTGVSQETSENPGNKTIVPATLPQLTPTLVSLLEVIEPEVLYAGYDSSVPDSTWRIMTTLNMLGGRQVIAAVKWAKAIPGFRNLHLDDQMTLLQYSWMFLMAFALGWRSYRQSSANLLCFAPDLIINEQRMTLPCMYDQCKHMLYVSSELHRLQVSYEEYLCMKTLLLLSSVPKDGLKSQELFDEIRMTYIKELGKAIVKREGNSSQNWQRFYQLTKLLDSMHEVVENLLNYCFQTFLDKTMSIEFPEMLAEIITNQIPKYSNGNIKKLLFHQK

[4] = molecular target: T3, Androgen receptor (Homo sapiens, UniProt P10275); assay: Inhibition of androgen receptor
T3 sequence (P10275 whole entry): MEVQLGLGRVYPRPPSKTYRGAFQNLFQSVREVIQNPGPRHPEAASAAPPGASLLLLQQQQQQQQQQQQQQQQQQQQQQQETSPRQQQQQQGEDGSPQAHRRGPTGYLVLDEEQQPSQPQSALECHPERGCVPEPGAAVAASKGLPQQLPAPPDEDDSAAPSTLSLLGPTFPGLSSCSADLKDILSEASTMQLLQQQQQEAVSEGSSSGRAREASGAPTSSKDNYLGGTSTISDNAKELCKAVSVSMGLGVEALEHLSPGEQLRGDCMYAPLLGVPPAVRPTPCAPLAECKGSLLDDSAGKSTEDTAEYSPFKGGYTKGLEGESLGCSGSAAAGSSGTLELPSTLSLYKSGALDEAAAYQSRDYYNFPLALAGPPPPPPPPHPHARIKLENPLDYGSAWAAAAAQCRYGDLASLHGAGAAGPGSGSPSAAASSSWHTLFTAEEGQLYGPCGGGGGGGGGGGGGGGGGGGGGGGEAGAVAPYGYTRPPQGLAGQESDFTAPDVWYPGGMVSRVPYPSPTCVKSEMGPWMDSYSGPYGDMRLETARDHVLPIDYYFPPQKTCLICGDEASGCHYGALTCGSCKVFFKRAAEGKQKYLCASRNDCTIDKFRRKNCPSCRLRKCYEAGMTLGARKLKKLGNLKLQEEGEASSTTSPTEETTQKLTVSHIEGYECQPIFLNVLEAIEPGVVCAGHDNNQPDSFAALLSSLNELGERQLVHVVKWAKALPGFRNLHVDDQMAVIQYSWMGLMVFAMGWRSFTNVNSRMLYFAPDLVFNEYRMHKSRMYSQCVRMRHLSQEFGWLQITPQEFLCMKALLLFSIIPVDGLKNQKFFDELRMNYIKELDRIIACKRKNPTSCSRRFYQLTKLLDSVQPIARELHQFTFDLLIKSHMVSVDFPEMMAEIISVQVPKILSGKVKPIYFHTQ

[5] = molecular target: T4, Progesterone receptor (Homo sapiens, UniProt P06401); assay: Inhibition of progesterone receptor
T4 sequence (P06401 whole entry): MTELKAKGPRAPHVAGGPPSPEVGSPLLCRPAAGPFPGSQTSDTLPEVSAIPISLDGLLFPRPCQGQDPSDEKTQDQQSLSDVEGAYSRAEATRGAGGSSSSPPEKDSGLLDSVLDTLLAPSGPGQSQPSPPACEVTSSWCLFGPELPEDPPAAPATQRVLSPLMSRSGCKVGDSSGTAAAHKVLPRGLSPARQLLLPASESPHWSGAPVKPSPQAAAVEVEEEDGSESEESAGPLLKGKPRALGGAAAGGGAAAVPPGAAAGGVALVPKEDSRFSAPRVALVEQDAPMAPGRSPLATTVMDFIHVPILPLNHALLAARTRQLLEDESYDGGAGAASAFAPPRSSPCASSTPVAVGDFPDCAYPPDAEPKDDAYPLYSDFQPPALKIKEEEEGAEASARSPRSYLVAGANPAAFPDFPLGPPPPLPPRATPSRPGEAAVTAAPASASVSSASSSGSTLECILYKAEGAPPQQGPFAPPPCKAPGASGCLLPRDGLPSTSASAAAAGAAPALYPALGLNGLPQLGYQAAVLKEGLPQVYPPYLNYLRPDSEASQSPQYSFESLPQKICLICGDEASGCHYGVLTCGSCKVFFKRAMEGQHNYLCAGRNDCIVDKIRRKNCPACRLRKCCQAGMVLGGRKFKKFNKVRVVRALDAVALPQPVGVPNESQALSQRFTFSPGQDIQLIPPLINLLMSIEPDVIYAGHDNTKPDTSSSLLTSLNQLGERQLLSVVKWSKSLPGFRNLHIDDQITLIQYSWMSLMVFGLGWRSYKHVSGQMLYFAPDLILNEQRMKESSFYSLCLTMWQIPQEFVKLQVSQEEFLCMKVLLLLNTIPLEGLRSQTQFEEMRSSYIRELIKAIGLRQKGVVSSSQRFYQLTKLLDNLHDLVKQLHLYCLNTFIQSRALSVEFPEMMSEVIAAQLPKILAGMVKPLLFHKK

[6] = molecular target: T5, Estrogen receptor (Homo sapiens, UniProt P03372); assay: Inhibition of estrogen receptor
T5 sequence (P03372 whole entry): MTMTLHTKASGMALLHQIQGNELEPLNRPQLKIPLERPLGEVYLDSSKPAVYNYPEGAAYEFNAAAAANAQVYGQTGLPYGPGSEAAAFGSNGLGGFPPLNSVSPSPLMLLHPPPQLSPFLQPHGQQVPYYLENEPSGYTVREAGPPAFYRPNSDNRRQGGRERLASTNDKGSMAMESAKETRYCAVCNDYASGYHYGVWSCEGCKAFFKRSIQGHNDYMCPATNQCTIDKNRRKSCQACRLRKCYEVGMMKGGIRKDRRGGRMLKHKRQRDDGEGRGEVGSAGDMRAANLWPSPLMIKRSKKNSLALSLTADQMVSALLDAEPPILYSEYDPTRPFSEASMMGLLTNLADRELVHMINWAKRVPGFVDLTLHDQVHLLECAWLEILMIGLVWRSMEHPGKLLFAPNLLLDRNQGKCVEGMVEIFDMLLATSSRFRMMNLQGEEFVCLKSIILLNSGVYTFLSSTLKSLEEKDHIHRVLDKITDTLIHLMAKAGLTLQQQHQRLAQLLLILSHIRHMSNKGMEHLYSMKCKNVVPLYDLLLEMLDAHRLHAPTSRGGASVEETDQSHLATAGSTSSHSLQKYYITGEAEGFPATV

[7] = Clearance in Sprague-Dawley rat at 2 mg/kg, iv by LC/MS/MS analysis; assay type: ADME, organism-based; parameters: dose 2 mg/kg, route intravenous; conditions: in vivo
[8] = (§1) Half life in Sprague-Dawley rat at 2 mg/kg, iv by LC/MS/MS analysis; assay type: ADME, organism-based; parameters: dose 2 mg/kg, route intravenous; conditions: Sprague-Dawley, in vivo
[9] = Volume of distribution at steady state in Sprague-Dawley rat at 2 mg/kg, iv by LC/MS/MS analysis; assay type: ADME, organism-based; parameters: dose 2 mg/kg, route intravenous; conditions: in vivo, read-out: Vdss
[10] = test system: Rattus norvegicus; assay: as §1; assay type: ADME, organism-based; parameters: dose 2 mg/kg, route intravenous; conditions: in vivo

SMILES	IC50 [1] [nM]	IC50 [2] [nM]	also measured
CCCC1=C(C(=O)OCC)[C@@H](c2ccnc3ccccc23)C(C#N)=C(C)N1	3280	1330	–
CCCC1=C(C(=O)OCC)[C@H](c2ccnc3ccccc23)C(C#N)=C(C)N1	10	2200	IC50 [3]: 270 nM; IC50 [4]: 730 nM; IC50 [5]: 1340 nM; IC50 [6]: > 10000 nM; clearance [7]: 9.7 mL/min/kg; half-life [8]: 6.54 h; Vd [9]: 0.42 L/kg
CCCC1=C(C(=O)OCC)C(c2ccnc3ccccc23)C(C#N)=C(C)N1 (racemic)	31	1100	–
CC1=C(C#N)[C@H](c2ccc(F)cc2Cl)C(C(=O)OC(C)(C)C)=C(C)N1	3520	3840	–
COC(=O)C1=C(C)NC(C)=C(C#N)[C@H]1c1ccnc2ccccc12	77	7730	–
COC(=O)C1=C(C)NC(C)=C(C(=O)OC(C)(C)C)C1c1cccc([N+](=O)[O-])c1 (racemic) [MEBUDIPINE]	126	> 20	–
COC(=O)C1=C(CCl)NC(C)=C(C#N)[C@H]1c1ccc(F)cc1Cl	41	2070	–
COC(=O)C1=C(C)NC(C)=C(C#N)[C@@H]1c1ccnc2ccccc12	469	14570	–
COC(=O)C1=C(CCl)NC(C)=C(C#N)[C@@H]1c1ccnc2ccccc12	2800	11270	–
CC1=C(C#N)[C@@H](c2ccc(F)cc2Cl)C(C(=O)OC(C)(C)C)=C(C)N1	3.7	–	IC50 [3]: 1370 nM; IC50 [4]: 246 nM; IC50 [5]: 3520 nM; IC50 [6]: > 10000 nM; t1/2 [10]: 1.14 h
COC(=O)C1=C(CCl)NC(C)=C(C#N)[C@@H]1c1ccc(F)cc1Cl	2200	570	–
COC(=O)C1=C(C)NC(C)=C(C(=O)OC(C)(C)C)[C@@H]1c1cccc([N+](=O)[O-])c1	46	607	IC50 [3]: 3260 nM; IC50 [4]: 1270 nM; IC50 [5]: 768 nM
COC(=O)[C@@H]1CC2=CC(=O)CC[C@]2(C)[C@@]23O[C@@H]2C[C@@]2(C)[C@@H](CC[C@@]24CCC(=O)O4)[C@H]13 [EPLERENONE]	–	> 5000	–
CC1=C(C#N)C(c2ccc(F)cc2Cl)C(C(=O)OC(C)(C)C)=C(C)N1 (racemic)	59	> 1550	–
COC(=O)C1=C(CCl)NC(C)=C(C#N)[C@H]1c1ccnc2ccccc12	340	7930	–
COC(=O)C1=C(C)NC(C)=C(C(=O)OC(C)(C)C)[C@H]1c1cccc([N+](=O)[O-])c1	536	> 0.5	–
